PubChem BioAssay (NCI)
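Five compound concentrations were applied to cells in 96-well plates for 48 hours; endpoints were derived by simple linear interpolation of the resulting dose-response curve. At the GI50, growth is halved. TGI marks complete inhibition of growth.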

Tests used:
Test in all cases: growth of human tumour cells (NCI), 48 h
HOP-92 NSCLC = test system: HOP-92 NSCLC
OVCAR-3 ovarian = test system: OVCAR-3 ovarian
NCI-H460 lung = test system: NCI-H460 lung
CAKI-1 renal = test system: CAKI-1 renal
A549 NSCLC = test system: A549 NSCLC
UO-31 renal = test system: UO-31 renal
NCI/ADR-RES ovarian = test system: NCI/ADR-RES ovarian
UACC-257 melanoma = test system: UACC-257 melanoma
HOP-62 NSCLC = test system: HOP-62 NSCLC
EKVX NSCLC = test system: EKVX NSCLC

SMILES	TGI (HOP-92 NSCLC)	TGI (OVCAR-3 ovarian)	TGI (NCI-H460 lung)	TGI (CAKI-1 renal)	TGI (A549 NSCLC)	TGI (UO-31 renal)	TGI (NCI/ADR-RES ovarian)	TGI (UACC-257 melanoma)	TGI (HOP-62 NSCLC)	TGI (EKVX NSCLC)	GI50 (HOP-92 NSCLC)	GI50 (CAKI-1 renal)	GI50 (UO-31 renal)	GI50 (NCI/ADR-RES ovarian)	GI50 (UACC-257 melanoma)
CN(Cc1ccccc1)c1cc(=O)n(C)c(=O)[nH]1	> 100 µM	> 100 µM	> 100 µM	> 100 µM	> 100 µM	> 100 µM	> 100 µM	> 100 µM							
N/C(=N\S(=O)(=O)c1c(C(F)(F)F)cccc1C(F)(F)F)Nc1ccc(Cl)cc1	43.6 µM	> 100 µM	> 100 µM		> 100 µM	6.35 µM	50.1 µM	47.7 µM	> 100 µM	36.2 µM					
Oc1[nH]c2ccc(Br)cc2c1N=NC(=S)Nc1ccc(F)cc1	16.3 µM	29 µM	15.3 µM	19.3 µM			6.63 µM	43 µM	60.5 µM						
CC[n+]1[b-](C(C)(C)C)n(/N=C/C(C)(C)C)[b-](C(C)(C)C)[n+]1CC		> 100 µM	> 100 µM	> 100 µM	> 100 µM	> 100 µM	> 100 µM	> 100 µM	> 100 µM	> 100 µM					
O=[N+]([O-])c1ccc(/C=C/c2cc(-c3ccccc3)nc3ccc4ccccc4c23)cc1		> 100 µM	> 100 µM	> 100 µM	> 100 µM	> 100 µM	> 100 µM	> 100 µM	> 100 µM	> 100 µM					
Cc1ccc(OCCn2cc(Nc3ccccc3)c(=O)n(CCOc3ccc(C)cc3)c2=O)cc1	> 100 µM	> 100 µM	> 100 µM	> 100 µM	> 100 µM	> 100 µM	> 100 µM	> 100 µM		> 100 µM					
C=Cc1ccc(C)[n+](C[Si](C)(C)O[Si](C)(C)C[n+]2cc(C=C)ccc2C)c1	> 100 µM	> 100 µM	> 100 µM	> 100 µM	> 100 µM	> 100 µM		> 100 µM	> 100 µM	> 100 µM					
CC(=O)OCC1OC(n2cc(I)c(=O)[nH]c2=O)C(OC(C)=O)C(OC(C)=O)C1OC(C)=O (centres undefined)	> 100 µM	> 100 µM	> 100 µM	> 100 µM	> 100 µM	> 100 µM		> 100 µM	> 100 µM	> 100 µM					
CSC(=Nc1ccccc1)N(c1ccccc1)c1nc(=[N+](C)C)ss1	7.09 µM	4.83 µM	18.1 µM	11.3 µM	33.7 µM	28.3 µM		4.96 µM	27.2 µM	29.5 µM					
C(=Nc1ccc(-c2nc3ccccc3o2)cc1)c1ccco1	> 100 µM			> 100 µM		> 100 µM	> 100 µM	> 100 µM		> 100 µM					
CC(C(=O)N1C(=O)N(C(=O)C(C)C(O)c2ccccc2)C2CCCCC21)C(O)c1ccccc1 (centres undefined)		> 100 µM	> 100 µM		> 100 µM	> 100 µM			> 100 µM	> 100 µM					
COC(=O)CCc1cc(OC)c2c(c1)[C@H](C(=O)OC)[C@@H](c1ccc(O)c(OC)c1)O2	> 100 µM	> 100 µM	> 100 µM		> 100 µM	> 100 µM	> 100 µM	> 100 µM	> 100 µM	> 100 µM					
N=C(N)c1ccc(-c2ccc(-c3cccs3)s2)cc1	16 µM			4.23 µM		2.48 µM	4.49 µM	3.15 µM			2710 nM	1890 nM	978 nM	1940 nM	1720 nM
O=c1ccn(C2OC(CO)C(P(=O)(O)O)C2O)c(=O)[nH]1 (centres undefined)	> 100 µM	> 100 µM	> 100 µM	> 100 µM	> 100 µM	> 100 µM		> 100 µM	> 100 µM	> 100 µM					
O=C1NCCS(=O)(=O)N[C@@H](CC2=CC=CCC2)C(=O)N2CCCC12 (some centres undefined)	> 100 µM	> 100 µM	> 100 µM		> 100 µM	> 100 µM		> 100 µM	> 100 µM	> 100 µM					
NNC1=N/C(=C\c2ccco2)C(Cl)=N1	> 100 µM	> 100 µM		> 100 µM	> 100 µM	> 100 µM	> 100 µM	> 100 µM	> 100 µM	> 100 µM					
CC(C)=CCC/C(C)=C/COC(C)(C)C1=CCC(C)CC1 (centres undefined) (tested in a mixture with another compound)	> 100 µM	> 100 µM	> 100 µM	> 100 µM	> 100 µM	> 100 µM		> 100 µM	> 100 µM	> 100 µM					
Cn1ccnc1C(O)(c1nccn1C)c1nccn1C	> 100 µM		> 100 µM	> 100 µM		> 100 µM		> 100 µM	> 100 µM	> 100 µM					
COC(=O)c1c2c(cc3c1CCC3)CCC2		> 100 µM	> 100 µM	> 100 µM	> 100 µM	> 100 µM	> 100 µM	> 100 µM	> 100 µM	> 100 µM					
Nc1nc(N)c(N=O)c(Nc2ccc(Br)cc2)n1	> 100 µM	79.3 µM	> 100 µM	> 100 µM	> 100 µM			77 µM	63.9 µM	> 100 µM					
O=c1[nH]cnc2c1ncn2[C@@H]1C[C@@H]1CO	> 100 µM		> 100 µM	> 100 µM	> 100 µM	> 100 µM	> 100 µM	> 100 µM	> 100 µM	> 100 µM					
CC(=O)O[C@H]1C(=O)[C@@]2(C)[C@H]([C@H](OC(=O)c3ccc(F)cc3)[C@]3(O)C[C@H](OC(=O)[C@H](O)[C@@H](NC(=O)c4ccccc4)c4ccccc4)C(C)=C1C3(C)C)[C@]1(OC(C)=O)CO[C@@H]1C[C@@H]2O	> 25 µM	0.0437 µM		> 25 µM	> 25 µM	> 25 µM	> 25 µM	> 25 µM	> 25 µM	> 25 µM					
O=C(NC(COC(=O)C(Cc1ccccc1)NC(=O)c1ccccc1)Cc1ccccc1)c1ccccc1 (centres undefined)	> 50 µM	> 50 µM	> 50 µM		> 50 µM	> 50 µM		> 50 µM	> 50 µM	> 50 µM					
